Measurements as given in BigSolDB 2.1.

COc1cc2c(cc1OC)C(=O)C(CC1CCN(Cc3ccccc3)CC1)C2.Cl (stereo not drawn)
solubility (mole fraction)
Conditions | in DMF | in ethanol | in methanol | in n-propanol
278.15 K | 0.00119 | 0.000291 | 0.00167 | 0.000112
283.15 K | 0.00135 | 0.000379 | 0.00222 | 0.000153
288.15 K | 0.00152 | 0.000484 | 0.00287 | 0.000214
293.15 K | 0.00173 | 0.000609 | 0.00375 | 0.000301
298.15 K | 0.00196 | 0.000768 | 0.00483 | 0.000404
303.15 K | 0.00222 | 0.000951 | 0.00636 | 0.000543
308.15 K | 0.00251 | 0.00118 | 0.00803 | 0.000743
313.15 K | 0.00286 | 0.00145 | 0.0105 | 0.00102
318.15 K | 0.00325 | 0.00177 | 0.0133 | 0.00133
323.15 K | 0.00368 | 0.00215 | 0.017 | 0.0018
328.15 K | 0.00418 | 0.00259 | 0.0216 | 0.00241
333.15 K | 0.00476 | 0.00308 | 0.0277 | 0.00321
